Here are results for nine compounds from article PMC4624963, “Enzymatic Characterization of Recombinant Food Vacuole Plasmepsin 4 from the Rodent Malaria Parasite Plasmodium berghei” (PLoS ONE, 2015).

The target of test [1] is T1, human cathepsin D (hcatD) (Homo sapiens, UniProt P07339).
T1 construct: made in house
Description: Inhibition of human cathepsin D, dissociation constants (Ki). Format: biochemical. As to conditions: pre-incubated in 200 mM sodium formate pH 3.7, 37°C, 5 min; read-out: Dissociation Constant (K i) hCatD. The procedure:
(§1) Dissociation constants were determined as previously described.
Proteins were purified using anion exchange chromatography.
Dissociation constants (Ki) were determined as described above.

Test [2] has as its target T2, PbPM4 (Plasmodium berghei, UniProt O76965). As to the kind of experiment: Inhibition of mature PbPM4, dissociation constants (Ki) from initial cleavage velocities of a chromogenic peptide substrate. Format: biochemical. The procedure: (§2) Chromogenic peptide substrates were dissolved in a solution containing 20% dimethyl sulfoxide (DMSO), 10% formic acid, and 70% distilled deionized water to generate stock solutions. Inhibitor stock solutions were prepared in 100% DMSO. The concentrations of the stock solutions were determined by amino acid analysis.
(§3) Kinetic assays were set up in 500 mM sodium citrate, pH 5.0 at 37°C with a 5-min pre-equilibrium time with buffer. To study kinetics of the zymogen form, assays were set up in 500 mM sodium citrate, pH 5.5 at 37°C with a 5-min pre-equilibrium time. All enzymatic reactions were carried out at 37°C.
as §1
(§4) The enzymes were prepared for kinetic assays: purified proPbPM4 was pre-incubated in 100 mM sodium citrate, pH 5.0, at 37°C for 5 min; purified mature PfPM1 was pre-incubated in 100 mM sodium citrate, pH 5.5, at 37°C for 3 min; all the other plasmepsins were pre-incubated in 100 mM sodium formate, pH 4.5, at 37°C for 5 min to convert zymogen to mature enzyme before the addition of substrates. Pre-incubation of hcatD was carried out in 200 mM sodium formate, pH 3.7, at 37°C for 5 min. Compound 1 was dissolved in 100% DMSO, and filtered through a 0.45 μm Costar cellulose acetate tube filter by centrifugation at 20,000 g, room temperature for 5 min to remove any particulate. The concentration of compound 1 was determined by amino acid analysis. Dissociation constants (Ki) were determined as described above.

The target of the next test is PvPM4 (Plasmodium vivax, UniProt O60989). As to the kind of experiment: biochemical. As for the experimental part: as §1
(§5) Besides PbPM4, the cloning, expression and purification of recombinant human FV plasmepsins, including PfPM1, 2 and 4, PoPM4, PvPM4 and PmPM4, and hcatD were performed according to experimental procedures described in previous reports. Briefly, genes encoding N-terminally truncated semi-pro-enzymes were cloned from genomic DNA, or intra-erythrocyte stage cDNA library of Plasmodium spp. (e.g., in the case of PfPM1), and inserted to pET expression vectors (EMD Millipore). Protein expression, inclusion body preparation and in vitro protein refolding were performed as described above for PbPM4. Proteins were purified using anion exchange chromatography.
as §4, with “Compound 1 was dissolved in 100% DMSO, and filtered through a 0.45 μm Costar cellulose acetate tube filter by centrifugation at 20,000 g, room temperature for 5 min to remove any particulate.” left out

The next test addresses PfPM1 (Plasmodium falciparum, UniProt P39898). As to the kind of experiment: biochemical. The procedure: as §1, §5
as §4, with “Compound 1 was dissolved in 100% DMSO, and filtered through a 0.45 μm Costar cellulose acetate tube filter by centrifugation at 20,000 g, room temperature for 5 min to remove any particulate.” left out

The next test deals with PoPM4. As to conditions: read-out: Dissociation Constant (K i) PoPM4; cited from earlier work.
The target of the next test is PmPM4. As to conditions: read-out: Dissociation Constant (K i) PmPM4; cited from earlier work.
Test [3] addresses T2, PbPM4. As to the kind of experiment: Kinetic analysis of cleavage of chromogenic peptide substrates by mature PbPM4. Format: biochemical. As to conditions: sodium citrate pH 5.0, 37°C. As for the experimental part:
as §2, §3
The substrate hydrolysis was analyzed by spectroscopy and defined as the decrease of the average absorbance between 284–324 nm. Pre-equilibrated enzyme was mixed with substrate at least six different concentrations (μM). The initial cleavage velocities (AU/sec) of these reactions were immediately measured on a Cary 50 Bio UV-Visible spectrophotometer. The initial cleavage rates (M/sec) were converted from the observed velocities (AU/sec) by dividing the observed velocities by the total absorbance changes upon complete enzymatic digestion of the substrate of known concentrations (i.e., AU/M).
The total concentration of active enzyme, [E]tot, was determined by titrating PbPM4 enzyme with the tight binding, competitive, aspartic proteinase inhibitor pepstatin A. A constant amount of pre-equilibrated enzyme was mixed either with 100 μM of the peptide substrate Lys-Pro-Ile-Leu-Phe*Nph-Arg-Leu or with both 100 μM of substrate and pepstatin A at a series of different concentrations. The initial cleavage rates of the substrate at different inhibitor concentrations were immediately measured afterwards using a Cary 50 Bio UV-Visible spectrophotometer.

Where two headings read alike, the source gives them in different places. Where a SMILES comes first, the peptide text is derived from it. [ ]: non-standard residue; d: D form. The star is where a group is joined. Sta = CC(C)C[C@H](N)[C@@H](O)CC(=O)O; Isovaleryl = CC(C)CC(=O)* Where only a bound is given, the exact number is not on record here.

T2 sequence (O76965 entry or part of it): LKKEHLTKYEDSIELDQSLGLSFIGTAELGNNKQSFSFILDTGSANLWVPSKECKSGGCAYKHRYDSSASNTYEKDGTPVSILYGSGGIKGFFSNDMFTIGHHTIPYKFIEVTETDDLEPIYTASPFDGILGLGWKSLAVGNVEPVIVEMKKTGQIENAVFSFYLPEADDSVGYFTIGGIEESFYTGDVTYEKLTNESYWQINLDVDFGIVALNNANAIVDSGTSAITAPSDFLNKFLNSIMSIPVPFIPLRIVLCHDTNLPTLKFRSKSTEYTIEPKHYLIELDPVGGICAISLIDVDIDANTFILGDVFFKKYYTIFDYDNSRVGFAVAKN
Sequence of PfPM1 (P39898 124-452): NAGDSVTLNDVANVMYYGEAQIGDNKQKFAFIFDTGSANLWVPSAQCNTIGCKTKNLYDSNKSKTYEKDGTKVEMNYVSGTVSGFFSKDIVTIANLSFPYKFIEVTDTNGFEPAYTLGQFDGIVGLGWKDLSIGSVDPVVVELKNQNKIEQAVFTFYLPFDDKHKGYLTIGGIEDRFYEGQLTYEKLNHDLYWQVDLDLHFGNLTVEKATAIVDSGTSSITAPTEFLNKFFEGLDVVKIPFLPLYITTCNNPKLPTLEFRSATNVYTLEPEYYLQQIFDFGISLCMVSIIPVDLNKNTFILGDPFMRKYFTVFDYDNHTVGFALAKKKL
T1 sequence (P07339 65-412): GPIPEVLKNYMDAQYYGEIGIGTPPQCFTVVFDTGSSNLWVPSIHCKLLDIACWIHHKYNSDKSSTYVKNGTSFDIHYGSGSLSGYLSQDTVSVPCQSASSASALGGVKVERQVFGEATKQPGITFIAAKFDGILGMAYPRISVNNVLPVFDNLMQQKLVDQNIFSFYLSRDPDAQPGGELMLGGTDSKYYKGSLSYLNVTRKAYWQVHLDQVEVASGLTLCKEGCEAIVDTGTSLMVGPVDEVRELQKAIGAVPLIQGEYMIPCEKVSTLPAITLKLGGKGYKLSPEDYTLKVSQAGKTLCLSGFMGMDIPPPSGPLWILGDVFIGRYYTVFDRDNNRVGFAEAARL
Sequence of PvPM4 (O60989 122-450 limits assumed): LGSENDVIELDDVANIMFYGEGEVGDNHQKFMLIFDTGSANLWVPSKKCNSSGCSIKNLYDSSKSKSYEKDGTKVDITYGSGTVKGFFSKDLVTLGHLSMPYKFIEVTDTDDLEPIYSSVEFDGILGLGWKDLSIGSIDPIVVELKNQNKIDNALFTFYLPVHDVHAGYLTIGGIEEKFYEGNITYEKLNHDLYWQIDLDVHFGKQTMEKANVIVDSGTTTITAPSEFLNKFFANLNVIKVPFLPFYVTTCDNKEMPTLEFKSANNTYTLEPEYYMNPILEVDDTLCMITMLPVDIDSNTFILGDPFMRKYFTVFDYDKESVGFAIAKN

In the case of `N=C(N)NCCC[C@H](NC[C@H](Cc1ccccc1)NC(=O)[C@H](CCC(=O)O)NC(=O)[C@H](Cc1ccc(O)cc1)NC(=O)[C@@H]1CCCN1C(=O)[C@@H](N)CCCCN)C(=O)N[C@@H](CCC(N)=O)C(=O)N[C@@H](Cc1ccccc1)C(=O)O` [Compound 1, KPYEFΨRQF], the Ki in test [1] is 41000 nM; on PbPM4 [2] (proPbPM4 pre-incubated in 100 mM sodium citrate pH 5.0, 37°C, 5 min, read-out: Dissociation Constant (K i) PbPM4) it was 3900 nM; on PvPM4, 426 ± 44 nM; at PfPM1 it was above 100000 nM. For the same compound, the “selectivity to PbPM4 and the four plasmepsin 4 homologs of human malaria parasites versus hcatD” value on PbPM4 [2] (from K i values) is on record as above 10 fold.

Take `CC(C)C[C@@H](CN[C@@H](CC(C)C)C(=O)N[C@@H](CCC(N)=O)C(=O)N[C@@H](Cc1ccccc1)C(=O)O)NC(=O)[C@H](CO)NC(=O)[C@H](Cc1ccccc1)NC(=O)[C@@H]1CCCN1C(=O)[C@@H](N)CCCCN` [Compound 2, KPFSLΨLQF]: the Ki on PoPM4 was 767 ± 81 nM.

As to `CCCC[C@@H](CN[C@@H](CC(C)C)C(=O)N[C@@H](CCC(N)=O)C(=O)N[C@H](C(=O)O)[C@@H](C)CC)NC(=O)[C@H](CO)NC(=O)[C@H](CCCC)NC(=O)[C@@H]1CCCN1C(=O)[C@@H](N)CCCCN` [Compound 3, KPnLSnLΨLQI], the results for the Ki on PoPM4 and on PmPM4 were 187 ± 29 nM and 160 ± 26 nM, respectively.

With `CC(C)[C@H](NC(=O)[C@@H]1CCCN1C(=O)[C@@H](N)CCCCN)C(=O)N[C@@H](CCC(=O)O)C(=O)N[C@H](CN[C@@H](CCCNC(=N)N)C(=O)N[C@@H](CCC(N)=O)C(=O)N[C@H](C(=O)O)[C@@H](C)O)Cc1ccccc1` [Compound 4, KPVEFΨRQT], the Ki on PoPM4 was 39 ± 4.5 nM; on PmPM4, 10.3 ± 1.3 nM.

With `CC(C)C[C@H](NC(=O)[C@@H]1CCCN1C(=O)[C@@H](N)CCCCN)C(=O)N[C@@H](CCC(=O)O)C(=O)N[C@H](CN[C@@H](Cc1ccccc1)C(=O)N[C@@H](CCCNC(=N)N)C(=O)N[C@H](C(=O)O)C(C)C)Cc1ccccc1` [Compound 5, KPLEFΨFRV], the Ki on PoPM4 is 3.2 ± 0.5 nM; at PmPM4, 3.7 ± 0.6 nM.

For `CC(C)C[C@H](NC(=O)[C@@H]1CCCN1C(=O)[C@@H](N)CCCCN)C(=O)N[C@@H](CCC(=O)O)C(=O)N[C@H](CN[C@@H](Cc1ccc(O)cc1)C(=O)N[C@@H](CCCNC(=N)N)C(=O)N[C@H](C(=O)O)C(C)C)Cc1ccccc1` [Compound 6, KPLEFΨYRV], the Ki on PoPM4 is 3.2 ± 0.5 nM; at PmPM4, 0.342 ± 0.047 nM.

`CC(C)C[C@@H](CN[C@@H](C)C(=O)N[C@@H](Cc1c[nH]c2ccccc12)C(=O)N[C@H](C(=O)O)[C@@H](C)O)NC(=O)[C@H](CCC(=O)O)NC(=O)[C@H](Cc1ccccc1)NC(=O)[C@@H]1CCCN1C(=O)[C@@H](N)CCCCN` [Compound 7, KPFELΨAWT]: the Ki on PoPM4 was above 20000 nM; on PmPM4, 9000 nM.

On to `CC(C)CC(=O)N[C@H](C(=O)N[C@H](C(=O)N[C@@H](CC(C)C)[C@@H](O)CC(=O)N[C@@H](C)C(=O)N[C@@H](CC(C)C)[C@@H](O)CC(=O)O)C(C)C)C(C)C` [pepstatin A, reference compound] (Isovaleryl-VV[Sta]A[Sta]-OH), for which the Ki at PbPM4 [2] (mature PbPM4, sodium citrate pH 5.0, 37°C, 5 min pre-equilibrium, read-out: K i) is 0.11 ± 0.02 nM.

With “Lys-Pro-Ile-Leu-Phe*Nph-Arg-Leu [K-P-I-L-F*Nph-R-L]”, on PbPM4 [3], the K m was 2.1 ± 0.2 µM, the k cat is 34.9 ± 5.7 s⁻¹ and the “k cat/K m” value is 1.65e+07 ± 2.9e+06 M⁻¹ s⁻¹.
